In the NIST ThermoML archive (doi:10.1016/j.tca.2014.10.019):

Assay: mn = molality of the nth substance listed, in mol/kg
Settings: 100 kPa, Liquid; for speed of sound: Frequency=3 MHz, Sing-around technique in a fixed-path interferometer; for mass density: Vibrating tube method

[Cl-].[K+] [potassium chloride] + O
Settings | mass density, 293.15 K [kg/m3] | mass density, 298.15 K [kg/m3] | mass density, 303.15 K [kg/m3] | mass density, 308.15 K [kg/m3] | mass density, 313.15 K [kg/m3] | speed of sound, 293.15 K [m/s] | speed of sound, 298.15 K [m/s] | speed of sound, 303.15 K [m/s] | speed of sound, 308.15 K [m/s] | speed of sound, 313.15 K [m/s]
m1 = 0.1 | 1002.99 | 1001.79 | 1000.36 | 998.71 | 996.88 | 1488.5 | 1502.5 | 1514.6 | 1525.1 | 1534
m1 = 0.2 | 1007.72 | 1006.48 | 1005.02 | 1003.35 | 1001.49 | 1493.8 | 1507.3 | 1519.3 | 1529.6 | 1538.4
m1 = 0.3 | 1013.42 | 1012.13 | 1010.63 | 1008.94 | 1007.02 | 1497.6 | 1511 | 1522.8 | 1532.9 | 1541.6

[Cl-].[Na+] [sodium chloride] + O
Settings | mass density, 293.15 K [kg/m3] | mass density, 298.15 K [kg/m3] | mass density, 303.15 K [kg/m3] | mass density, 308.15 K [kg/m3] | mass density, 313.15 K [kg/m3] | speed of sound, 293.15 K [m/s] | speed of sound, 298.15 K [m/s] | speed of sound, 303.15 K [m/s] | speed of sound, 308.15 K [m/s] | speed of sound, 313.15 K [m/s]
m1 = 0.1 | 1002.42 | 1001.21 | 999.77 | 998.12 | 996.28 | 1489.3 | 1503.3 | 1515.5 | 1525.9 | 1534.8
m1 = 0.2 | 1006.67 | 1005.41 | 1003.93 | 1002.25 | 1000.38 | 1496.2 | 1509.9 | 1521.8 | 1532 | 1540.7
m1 = 0.3 | 1010.64 | 1009.34 | 1007.81 | 1006.1 | 1004.2 | 1502.3 | 1515.8 | – | 1537.6 | 1546.2
